Measurements taken from patent US9156826B2, “Asymmetrical reversible neuromuscular blocking agents of ultra-short, short, or intermediate duration” (Cornell University, priority 2012, dated 2015).
“Also recorded” adds a separate entry of the source.

What was measured:
[1] = system: twitch responses of the extensor digitorum of the foot (peroneal nerve stimulation); assay: Neuromuscular blocking potency and duration: twitch blockade dose-response in anesthetized rhesus monkeys; format: in vivo, rhesus monkey (Macaca mulatta)
Protocol: (§1) Selected NMBA compounds were tested as described in PCT/US2010/000796 application by an inventor herein, published as WO2010/107488, which is incorporated by reference, see pages 66-78. Dose-response curves for twitch blockade by test compounds were generated as described. […] Successive doses were separated by at least three estimated half lives beyond complete recovery of the previous dose to TOF of 110-120%, which is normal for these monkeys. Only the first one or two doses yielding 5 to 99% blockade were included from any single experiment for computation of dose-response data. Comparative studies of spontaneous recovery versus antagonism/reversal were done at least 3 estimated half-lives following dose-response studies. ED50 and ED95 were computed from the regression of log dose vs. the logit of percentage blockade of twitch.
Experiments were approved by the Institutional Animal Care and Use Committee of Weill Medical College of Cornell University (New York, N.Y.) and of Albany Medical College (Albany, N.Y.), where the studies were conducted. A colony of 10 adult male monkeys (Macaca mulatta) weighing 8-18 kg was studied at ˜6 week intervals. Animals were housed and cared for in accordance with the Guide for Care and Use of Laboratory Animals (National Research Council, Washington, D.C.). They were fed a standard Old World monkey diet, enriched with fruits and vegetables, and other dietary novelties and were followed throughout the study to verify normal health by physical examination, body weight, and clinical laboratory studies (Complete Blood Count, Blood Urea Nitrogen and creatinine, and liver function tests).
(§2) On the day of each study, monkeys received ketamine (7-10 mg/kg i.m.) followed by tracheal intubation under topical anesthesia with 4% lidocaine. Ventilation was controlled at 10 mL/kg and 20 breaths/min with isoflurane (1.0-2.0%) and N2O/O2 (2:1 mixture). Ringers lactate was administered at ˜10 ml kg^−1 h^−1. Arterial pressure was monitored from a femoral, superficial tibial, or radial (22 gauge) cannula. Heart rate was measured by tachograph from the arterial pulse wave. Core temperature was kept at 36.5-38.0° C. by warming blankets. Electrocardiogram and pulse oximetry were monitored continuously.
(§3) Needle electrodes (25 gauge) transmitting square-wave pulses of 0.2 msec duration at supramaximal voltage which were generated by a Grass S-88 stimulator (Grass Instruments, Quincy, Mass.) were placed at the peroneal nerve at the knee to elicit twitch responses of the extensor digitorum of the foot at 0.15 Hz. A small slip (10-20%) of the tendon was dissected free under sterile technique and tied to a Grass FT 10 force transducer (Grass Instruments, Quincy, Mass.) at a baseline tension of 50 gm. Train-of four stimulation (TOF, 2 Hz for 2 sec) was interposed at appropriate points, especially 1-2 min prior to NMBA dosing and following recovery of twitch to 95% of baseline, where TOF was subsequently evaluated every 1-2 min.
(§4) Recordings of circulatory and neuromuscular data were made on a Grass 7B polygraph (Grass Instruments). A baseline period of 15-20 min was allowed for stabilization of recordings prior to dosing.^2
Dose-response curves for twitch blockade by gantacurium, CW 002, CW 011, cisatracurium, CW002-Cys, NB 938-69, NB 1064-81, NB 802-17 (CW 001), NB 832-65, and NB 1163-79, structures of which are all shown above, were generated as follows. […] Successive doses were separated by at least three estimated half lives beyond complete recovery of the previous dose to TOF of 110-120%, which is normal for these monkeys. Only the first one or two doses yielding 5 to 99% blockade were included from any single experiment for computation of dose-response data.
ED 50 and ED 95 were computed from the regression of log dose vs. the logit of percentage blockade of twitch.

[2] = system: twitch responses of the extensor digitorum of the foot (peroneal nerve stimulation); assay: Spontaneous recovery versus reversal of neuromuscular blockade by cysteine in monkeys; format: in vivo, rhesus monkey (Macaca mulatta); conditions: for Total Duration (Spontaneous Recovery): injection to 95% twitch height
Protocol: as §1, §2, §3
Comparative studies of spontaneous recovery versus antagonism/reversal were done at least 3 estimated half-lives following dose-response studies.

[3] = system: blood pressure and heart rate; assay: Circulatory effects (arterial pressure, heart rate) during neuromuscular blockade in rhesus monkeys; format: in vivo, rhesus monkey (Macaca mulatta); conditions: rhesus monkey
Protocol: Thus, the undesired side effect of tachycardia is not induced by a compound of the invention at a dose effective to induce NMB.
as §2, §4

mean arterial pressure = assay: Rise in mean arterial pressure after cysteine dosing; conditions: 100 mg/kg
[4] = Properties of cysteine solutions (solubility, natural pH); format: physicochemical; conditions: cysteine in its base form
Protocol: To accomplish the reversal of a neuromuscular blockade generated by one of these agents, cysteine is administered by intravenous injection. However, the natural pH of cysteine hydrochloride solutions at concentrations of 50 mg/ml or more in aqueous solution (e.g., 0.9% saline) is very low, ranging from about pH 0.8 to about pH 1.0. Moreover, cysteine is not soluble at concentrations greater than 50 mg/ml in its base form, but higher concentrations of cysteine are more conveniently administered for reversal of neuromuscular blockades. For example, bolus administration of volumes greater than 50 ml over a time period of 5-10 sec is generally not convenient in an operating room. Therefore, to be administered to patients, cysteine solutions have been developed that have higher concentrations and higher pH values as described herein.

[5] = Table 3, dose 0.064 ± 0.010 (gantacurium) or 0.060 ± 0.012 mg/kg (CW1759-50)

For COc1ccc(C[C@@H]2c3cc(OC)c(OC)cc3CC[N@@+]2(C)CCCOC(=O)/C=C\C(=O)OCCC[N+]2(Cc3ccc(OC)c(OC)c3)CCOCC2)cc1 [Compound 1726-01], the “duration of neuromuscular blockade (spontaneous recovery, FIG. 2)” value ([1]; 0.06 mg/kg dose, rhesus monkey) was “about six”, the ED95 ([1]; Macaca mulatta, Table 1, calculated dose for 95% block of twitch, monkeys, read-out: ED 95) was 0.05 mg/kg and the “Duration (min ± SD)” value ([1]; Table 1, at the actual dose administered, injection to recovery of twitch to 95% of control) was 7.6 ± 2.4 min. The “Blockade (%)” value [1, 5] was 99.3 ± 0.2%, the “Onset” value [1, 5] was 94.0 ± 8.7 s and the “Total Duration” value [1, 5] was 8.2 ± 1.5 min. The “potency compared with gantacurium (% blockade, time to onset, total duration of effect)” value ([1]; Table 3 comparison) was “comparable to gantacurium in potency”, the “ED95 (statistical analysis of dose-response study, FIG. 1)” value ([1]; rhesus monkeys) was 0.054 ± 0.0022 mg/kg and the “spontaneous reversal of blockade time (FIG. 4)” value ([2]; 100% block) was “more than 10 minutes”. The “cysteine-induced reversal time (FIG. 4)” value ([2]; 100% block, 30 mg/kg L-cysteine hydrochloride) was no more than 2 min, the “5-95% Interval with L-Cysteine” value ([2]; L-cysteine 30 mg/kg at +1 min following bolus 0.2 mg/kg (4x ED95), Point A) was 1.9 ± 0.2 and the “5-95% Interval with L-Cysteine” value ([2]; L-cysteine 30 mg/kg at +1 min following discontinuation of infusion (30-120 mins), Point B) was 2.1 ± 0.2. The “Reversibility (Cysteine)” value ([2]; Table 1, reversal of the blockade by cysteine) was “Yes”, the “5-95% Interval (Spontaneous Recovery)” value ([2]; bolus 0.2 mg/kg (4x ED95), Point A) was 6.2 ± 0.2 and the “Total Duration (Spontaneous Recovery)” value ([2]; bolus 0.2 mg/kg (4x ED95)) was 11.9 ± 0.3 min. The “5-95% Interval (Spontaneous Recovery)” value ([2]; bolus 0.05-0.06 mg/kg (ED99)) was 5.2 ± 0.2, the “Total Duration (Spontaneous Recovery)” value ([2]; bolus 0.05-0.06 mg/kg (ED99)) was 7.3 ± 0.3 min and the “dependence of recovery (5-95% twitch recovery interval) on dosage or duration of infusion (FIG. 5)” value ([2]; bolus or infusion, spontaneous or L-cysteine induced recovery, listed as 1759-50) was “not significantly effected by the previous duration of infusion; also recorded: unaffected by dosage or duration of infusion”. For the same compound, the “5-95% Interval (Spontaneous Recovery)” value ([2]; continuous infusions, 30-120 mins, Point B) was 5.2 ± 0.3, the “spontaneous reversal time (FIG. 3)” value ([2]; dose of 4x the ED95 dose) was “about 11 minutes” and the “time to termination of blockade following L-cysteine administration (FIG. 3)” value ([2]; dose of 4x the ED95 dose, 30 mg/kg L-cysteine hydrochloride) was “about two”. For the same compound, the “effect on blood pressure” value ([3]; 0.06 mg/kg dose, FIG. 2) was “no apparent effect on blood pressure” and the “effect on heart rate / tachycardia” value ([3]; 0.06 mg/kg, dose effective to induce NMB) was “no apparent effect on heart rate”.
In the case of N[C@H](CS)C(=O)O [D-cysteine], the “rise in mean arterial pressure compared with L-cysteine” value (mean arterial pressure) is reported as “less of a rise in mean arterial pressure than L-cysteine”.
For N[C@@H](CS)C(=O)O [cysteine], the solubility [4] was no more than 50 mg/mL.
